Measured values taken from patent publication US8361734B2, “Xanthurenic acid derivative pharmaceutical compositions and methods related thereto” (Naturon, Inc., priority 2004, dated 2013).

Columns and labels:
Format in all cases: in vivo
[1] = test system: normal Sprague Dawley rat; assay: Natriuretic response (Na+ and K+ urine excretion) after oral administration in a normal Sprague Dawley rat
Method: A female Sprague Dawley rat (250 g) was anesthetized lightly with ether and a urethra catheter was inserted using KY jelly and 2% lidocaine as a lubricant. The rat was restrained in a modified Plexiglas tube so that urine could be collected in 1.5-mL microcentrifuge tubes. No saline infusion was administered. Synthetic xanthurenic acid 8-O-β-D-glucoside was injected with a feeding needle at the time indicated in a 1-mL volume of water over the course of 1 minute. […] The tubes were centrifuged at 14,000 rpm to separate any RBC's from the urine. Na^+ and K^+ concentrations in the urine were measured with respective ion selective electrodes. The Na^+ and K^+ excretion rates were calculated by: (vol of urine/time of collection period)×(ion urine concentration).
A female Sprague Dawley rat (250 g) was anesthetized lightly with ether and a urethra catheter was inserted using KY jelly and 2% lidocaine as a lubricant. The rat was restrained in a modified Plexiglas tube so that urine could be collected in 1.5-mL microcentrifuge tubes. No saline infusion was administered. Xanthurenic acid 8-O-sulfate was injected with a feeding needle at the time indicated in a 1-mL volume of water over the course of 1 minute. The tubes were centrifuged at 14,000 rpm to separate any RBC's from the urine. Na^+ and K^+ concentrations in the urine were measured with respective ion selective electrodes. The Na^+ and K^+ excretion rates were calculated by: (vol of urine/time of collection period)×(ion urine concentration).

[2] = test system: uremic Sprague Dawley rat; assay: Natriuretic response (Na+ and K+ urine excretion) after i.v. administration in a uremic Sprague Dawley rat
Text: Female Sprague-Dawley rat, weighing 225 g, was made uremic by tying off one kidney and 30-50% of the second kidney. Two weeks later the rat was ready to test for natriuretic activity. The rat was anesthetized lightly with ether and a tail vein catheter was placed using PE10 tubing. Additionally, a urethra catheter was inserted using KY jelly and 2% lidocaine as a lubricant. The rat was restrained in a modified Plexiglas tube so that urine could be collected in 1.5-mL microcentrifuge tubes. Saline infusion started at time zero at 0.02 mL/min for the length of the assay. The same i.v. catheter was used to inject isolated xanthurenic acid 8-O-β-glucoside at the time indicated in a 1-mL volume in saline over the course of 10 minutes. […] The tubes were centrifuged at 14,000 rpm to separate any RBC's from the urine. Na^+ and K^+ concentrations in the urine were measured with respective ion selective electrodes. The Na^+ and K^+ excretion rates were calculated by: (vol of urine/time of collection period)×(ion urine concentration).
A female Sprague-Dawley rat, weighing 225 g, was made uremic by tying off one kidney and 30-50% of the second kidney. Two weeks later the rat was ready to test for natriuretic activity. The rat was anesthetized lightly with ether and a tail vein catheter was placed using PE10 tubing. Additionally, a urethra catheter was inserted using KY jelly and 2% lidocaine as a lubricant. The rat was restrained in a modified Plexiglas tube so that urine could be collected in 1.5-mL microcentrifuge tubes. Saline infusion started at time zero at 0.02 mL/min for the length of the assay. The same i.v. catheter was used to inject the test compound. Isolated xanthurenic acid 8-O-sulfate, 2 μg, was injected at the time indicated in a 1 mL volume in saline over the course of 10 minutes. Then saline infusion was returned to 0.02 mL/min for the duration of the assay. The tubes were centrifuged at 14,000 rpm to separate any RBC's from the urine. Na^+ and K^+ concentrations in the urine were measured with respective ion selective electrodes. The Na^+ and K^+ excretion rates were calculated by: (vol of urine/time of collection period)×(ion urine concentration).

[3] = test system: normal Sprague Dawley rat; assay: Natriuretic response (Na+ and K+ urine excretion) after i.v. administration in a normal Sprague Dawley rat; conditions: for natriuretic response (Na+ excretion): 2 μg i.v., FIGS. 1-4
Method: A female Sprague Dawley rat (250 g) was anesthetized lightly with ether and a tail vein catheter was placed using PE10 tubing. Additionally, a urethra catheter was inserted using KY jelly and 2% lidocaine as a lubricant. The rat was restrained in a modified Plexiglas tube so that urine could be collected in 1.5-mL microcentrifuge tubes. Saline infusion started at time zero at 0.02 mL/min for the duration of the assay. The same i.v. catheter was used to inject the test compound. Synthetic xanthurenic acid 8-O-β-D-glucoside, 2 μg, was injected at the time indicated in a 1-mL volume in saline over the course of 10 minutes. The tubes were centrifuged at 14,000 rpm to separate any RBC's from the urine. Na^+ and K^+ concentrations in the urine were measured with respective ion selective electrodes. The Na^+ and K^+ excretion rates were calculated by: (vol of urine/time of collection period)×(ion urine concentration). […] Given an extracellular volume of 50 mL in a 250-g rat, the concentration of the test compound was […], a possible minimum dose.
A female Sprague Dawley rat (250 g) was anesthetized lightly with ether and a tail vein catheter was placed using PE10 tubing. Additionally, a urethra catheter was inserted using KY jelly and 2% lidocaine as a lubricant. The rat was restrained in a modified Plexiglas tube so that urine could be collected in 1.5-mL microcentrifuge tubes. Saline infusion started at time zero at 0.02 mL/min for the length of the assay. The same i.v. catheter was used to inject the test compound. Synthetic xanthurenic acid 8-O-β-D-glucoside, 10 μg i.v. was injected at the time indicated in a 1-mL volume in saline over the course of 10 minutes. At the indicated time the saline infusion was increased tenfold to 0.2 mL/min for ten minutes and returned to 0.02 mL/min for the duration of the assay. The tubes were centrifuged at 14,000 rpm to separate any RBC's from the urine. Na^+ and K^+ concentrations in the urine were measured with respective ion selective electrodes. The Na^+ and K^+ excretion rates were calculated by: (vol of urine/time of collection period)×(ion urine concentration).

[4] = i.v. administered sulfate, FIG. 19

O=C(O)c1cc(=O)c2cccc(OS(=O)(=O)O)c2[nH]1 [xanthurenic acid 8-O-sulfate, Xanthurenic Acid 8-O-sulfate]
Na+ urine concentration ([1]; 20 ug oral, synthetic sulfate, normal rat): below 50 mM | natriuretic response ([1]; 20 ug oral, synthetic sulfate, normal rat, FIGS. 21-24): not orally active | Na+ urine concentration after the increase [2, 4]: 160 mM | Na+ urine concentration before the increase [2, 4]: 60 mM | time until natriuresis approached control levels ([2]; isolated sulfate 2 μg i.v., uremic rat): ≤ 70 min | natriuretic response ([2]; isolated sulfate 2 μg i.v., uremic rat, FIGS. 17-20): caused sustained natriuretic response | time to peak of natriuresis ([2]; isolated sulfate 2 μg i.v., uremic rat, FIGS. 17 and 18): ≤ 30 min | K+ excretion ([2]; isolated sulfate 2 μg i.v., uremic rat, FIGS. 18 and 19): did not increase

O=C(O)c1cc(=O)c2cccc(O[C@@H]3OC(CO)[C@@H](O)[C@H](O)C3O)c2[nH]1 (stereo partly drawn) [xanthurenic acid 8-O-β-D-glucoside, Xanthurenic acid 8-O-β-D-glucoside]
natriuretic response ([1]; 10 μg oral, synthetic compound, normal rat, FIGS. 9-12): orally active | Na+ urine concentration reached ([1]; glucoside oral, normal rat, FIG. 11): 160 mM | K+ excretion ([1]; pretreatment with glucoside 10 μg oral followed by furosemide 100 μg oral, FIG. 10): did not increase K^+ excretion | furosemide-induced K+ excretion ([1]; pretreatment with glucoside 10 μg oral, furosemide 100 μg oral): inhibited | natriuretic response (Na+ excretion) ([3]; synthetic compound, normal rat): caused a sustained natriuretic response | Na+ excretion rate before increase of saline infusion ([3]; 10 μg i.v., saline 0.02 mL/min, FIG. 6): 2 uEq/min | Na+ excretion rate after saline infusion increased tenfold ([3]; 10 μg i.v., saline 0.2 mL/min for 10 minutes, FIG. 6): 10 uEq/min | time after administration at which urine production decreased ([3]; 10 μg i.v., saline infusion 0.02 mL/min): 140 min | K+ excretion ([3]; 10 μg i.v., synthetic compound, normal rat): did not increase | natriuretic response ([3]; 10 μg i.v., synthetic compound, normal rat, FIGS. 5-8): caused a sustained natriuretic response | natriuresis ([3]; synthetic glucoside given subsequently to xanthurenic acid 2 ug i.v., normal rat): did cause natriuresis | time of peak Na+ excretion ([2]; isolated glucoside 3 μg i.v., uremic rat, FIG. 13): 70 min | natriuretic response ([2]; isolated glucoside 3 μg i.v., uremic rat, FIGS. 13-16): caused a sustained natriuretic response | K+ excretion ([2]; isolated glucoside 3 μg i.v., uremic rat, FIGS. 14 and 15): did not increase | K+ excretion after furosemide ([2]; pretreatment with isolated glucoside 3 μg i.v. followed by furosemide 20 ug i.v., uremic rat, FIGS. 14 and 15): prevented the typical increase in K^+ excretion

O=C(O)c1cc(O)c2cccc(O)c2n1 [xanthurenic acid]
natriuretic response (Na+ excretion) ([3]; synthetic compound, normal rat): did not increase Na^+ excretion
